Here are results for 2 molecules from US8202969B2, “Platelet derived growth factor receptor alpha (PDGFRA) polypeptides comprising activating mutation(s)” (Oregon Health & Science University, priority 2002, dated 2012).

Structures can show the parent of a compound that is named as a salt.

The subject of experiment [1] is KIT activation loop mutations that involve residues other than aspartic acid 816. Conditions: cited from earlier work.
Experiment [2] concerns KIT D816 mutations (D816V, D816Y, D816F, D816H). Conditions: or equivalent D814 residue in murine KIT; cited from earlier work.
Experiment [3] deals with wild-type KIT (Homo sapiens, UniProt P10721). Particulars: cited from earlier work.
wild-type KIT, sequence (P10721 26-976): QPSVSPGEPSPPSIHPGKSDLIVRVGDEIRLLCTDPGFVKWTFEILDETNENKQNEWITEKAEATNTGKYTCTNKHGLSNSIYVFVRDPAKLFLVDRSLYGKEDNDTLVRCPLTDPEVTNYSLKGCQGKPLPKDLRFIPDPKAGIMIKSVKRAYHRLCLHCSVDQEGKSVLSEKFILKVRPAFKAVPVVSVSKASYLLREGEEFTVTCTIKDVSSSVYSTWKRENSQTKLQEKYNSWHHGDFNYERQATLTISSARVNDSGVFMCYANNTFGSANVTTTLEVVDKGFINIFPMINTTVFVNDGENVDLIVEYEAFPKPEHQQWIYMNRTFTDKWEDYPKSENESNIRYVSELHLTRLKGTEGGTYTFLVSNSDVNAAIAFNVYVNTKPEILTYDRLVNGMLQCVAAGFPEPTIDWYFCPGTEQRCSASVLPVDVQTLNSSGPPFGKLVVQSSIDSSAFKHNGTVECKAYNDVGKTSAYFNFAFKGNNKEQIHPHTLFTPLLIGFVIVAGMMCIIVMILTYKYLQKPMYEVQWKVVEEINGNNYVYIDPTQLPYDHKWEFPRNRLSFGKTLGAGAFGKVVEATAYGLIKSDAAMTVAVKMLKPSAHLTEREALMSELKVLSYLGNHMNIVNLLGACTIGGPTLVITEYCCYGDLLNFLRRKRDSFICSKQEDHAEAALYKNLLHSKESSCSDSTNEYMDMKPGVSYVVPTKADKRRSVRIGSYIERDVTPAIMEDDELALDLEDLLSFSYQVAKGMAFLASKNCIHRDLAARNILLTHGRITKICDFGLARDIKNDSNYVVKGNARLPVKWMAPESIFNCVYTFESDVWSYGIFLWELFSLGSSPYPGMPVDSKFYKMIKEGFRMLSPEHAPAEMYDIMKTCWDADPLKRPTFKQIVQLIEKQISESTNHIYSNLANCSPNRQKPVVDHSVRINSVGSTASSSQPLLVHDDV
Experiment [4] has as its system KIT activating mutations involving the extracellular, juxtamembrane and TK1 domain. Particulars: cited from earlier work.
Experiment [5] has as its system CHO cells. Kind of experiment: Tyrosine phosphorylation of wild-type and mutant PDGFRA transiently expressed in CHO cells (immunoblot). Conditions: for change of tyrosine phosphorylation by ligand stimulation: CHO cells, 100 ng/ml recombinant human PDGF-AA for 10 minutes; for baseline tyrosine phosphorylation: transient expression in CHO cells, serum starved overnight, vehicle. The format is cell-based, Chinese hamster. Here is the method: FIG. 8: DGFRA mutations in GISTs result in constitutive activation of PDGFRA kinase. […] CHO cells were transiently transfected with expression vectors encoding cDNAs for wild-type or mutant PDGFRA. Transfected cells were serum starved overnight and treated with vehicle or ligand (recombinant human PDGF-AA) for 10 minutes. Whole cell lysates were immunostained sequentially for phospho-tyrosine and PDGFRA. […] In contrast, the mutant PDGFRA proteins display ligand-independent phosphorylation.
PDGFRA mutations were cloned by site-directed mutagenesis of the wild type PDGFRA cDNA. CHO cells were transiently transfected with expression vectors encoding for mutant or wild-type PDGFRA cDNA. Transfected cells were serum starved overnight and stimulated with vehicle or 100 ng/ml recombinant human PDGF-AA for 10 minutes before harvesting cells and preparing whole cell lysates for immunoblotting. The membranes were sequentially immunoblotted with antiserum against phosphorylated tyrosines (PY20 Transduction Laboratories) or total PDGFRA (Santa Cruz sc-338).

As for `Cc1ccc(NC(=O)c2ccc(CN3CCN(C)CC3)cc2)cc1Nc1nccc(-c2cccnc2)n1` [imatinib mesylate], in experiment [1], the “activity against other KIT activation loop mutations” value was “some activity”. In experiment [2], the “activity against KIT D816 mutations” value is on record as “no clinically useful activity”. The “activity against the kinase activity of wild-type KIT” value in experiment [3] is given as “highly active”. For the same molecule, the “activity against KIT activating mutations involving the extracellular, juxtamembrane and TK1 domain” value in experiment [4] is “highly active”.
With “non-mutant PDGFRA: human PDGFRA protein, SEQ ID NO: 2”, in experiment [5], the “change of tyrosine phosphorylation by ligand stimulation” value is given as “substantially increased” and the baseline tyrosine phosphorylation result is listed as “weak”. Further, in experiment [5] (listed as Wild type PDGFRA), the “change of tyrosine phosphorylation by ligand stimulation” value is listed as “upregulated” and the baseline tyrosine phosphorylation entry was “low-level phosphorylation”.
